The values below come from patent US20040197855A1, “Test system for determining gene toxicities” (priority 2001, published 2004).

One series has as its system GalER-VP. The series can be described thus: Estradiol-inducible expression of I-SceI meganuclease in KMV cells. Type of series: cell-based, human. As to conditions: KMV clones with genomic pGC-Sce; Gal4 recognition sequence promoter. The source says: In order to achieve controlled meganuclease expression because of the antiproliferative effect of DSBs, the extremely reliable, β-estradiol-inducible expression system was selected according to a preferred embodiment of the invention (Braselmann, S. et al. (1993) Proc. Natl. Acad. Sci. USA 90: 1657-1661; Dudenhöffer, C. (1999) Oncogene 18: 5773-5784). The expression system couples the so-called Gal4ER transcription factor to an expression cassette controlled by a Gal4ER-responsive promoter (compare FIG. 2). Gal4ER represents a fusion protein of the DNA binding domain of the Gal4 transcription factor with the strong, viral VP16 transactivator domain and a β-estradiol binding domain of the human β-estradiol receptor, making Gal4ER functionally inducible as transcription factor by β-estradiol. This principle of conditional expression permits an inducible increase in protein expression by at least one order of magnitude. […] Inducible I-SceI expression was detected in Western blot experiments. […]

The test system of a further series is mice. The conditions noted are these: cited from earlier work.
The subject of a further series is Salmonella typhimurium. As to conditions: cited from earlier work.
For another series, the system named is rats. The conditions noted are these: cited from earlier work.
The subject of series [1] is yeast and mammalian cells. As to conditions: cited from earlier work.

Regarding `C[C@]12CC[C@@H]3c4ccc(O)cc4CC[C@H]3[C@@H]1CC[C@@H]2O` [β-estradiol], the “lowest concentration for complete promoter induction” value in the series on GalER-VP is 50 nM.

In the case of `Cc1ccccc1N` [o-toluidine], in the series on mice, the tumours in mice entry was “cause tumours”. The “result in the Ames assay” value with Salmonella typhimurium was “negative”. In the series on rats, the tumours in rats result is on record as “cause tumours”. Besides, the “recombination events leading to deletions” value in series [1] was “triggered”.
